Values of other authors, collected in patent US20160067273A1, “Compositions and methods for preparation of synthetic alpha-gal nanoparticles and for their clinical use” (priority 2014, published 2016).

Test system: human natural anti-Gal antibody
Conditions: equilibrium dialysis

Row | Compound | fold by which affinity of anti-Gal to Galα1-3Galβ1-4GlcNAc is higher than the affinity to this carbohydrate [fold] | also measured
1 | OC[C@H]1O[C@H](O[C@H]2[C@@H](O)[C@@H](CO)OC(O)[C@@H]2O)[C@H](O)[C@@H](O)[C@H]1O (some centres unmarked) [Galα1-3Gal] | 10 | 
2 | CC(=O)N[C@H]1C(O)O[C@H](CO)[C@@H](O[C@@H]2O[C@H](CO)[C@H](O)[C@H](O[C@H]3O[C@H](CO)[C@H](O)[C@H](O)[C@H]3O)[C@H]2O)[C@@H]1O (some centres unmarked) [Galα1-3Galβ1-4GlcNAc] |  | affinity (strength of binding) of anti-Gal to synthetic free oligosaccharide, rank: highest
3 | OC[C@H]1O[C@H](O[C@H]2[C@@H](O)[C@@H](CO)O[C@@H](O[C@H]3[C@H](O)[C@@H](O)C(O)O[C@@H]3CO)[C@@H]2O)[C@H](O)[C@@H](O)[C@H]1O (some centres unmarked) [Galα1-3Galβ1-4Glc] |  | affinity of anti-Gal lower than that to Galα1-3Galβ1-4GlcNAc: approximately 30%
4 | OC[C@H]1O[C@H](OCC2O[C@@H](O)[C@H](O)[C@@H](O)[C@@H]2O)[C@H](O)[C@@H](O)[C@H]1O (some centres unmarked) [melibiose, Galα1-6Glc] | 300 | 
5 | CO[C@@H]1O[C@H](CO)[C@H](O)[C@H](O)[C@H]1O [methyl-galactoside] | 300 | 
